Test results as given in US20060148858A1, “1, 2-Azole derivatives with hypoglycemic and hypolipidemic activity” (priority 2002, published 2006).
Like-named read-outs stand apart in the source and are kept apart here.

Tests used:
PPARγ-RXRα heterodimer = biological target: T1, PPARγ-RXRα heterodimer (Homo sapiens, UniProt P37231); experiment: PPARγ-RXRα heterodimer ligand activity, luciferase reporter in PPARγ:RXRα:4ERPP/CHO-K1 cells (Test Example 3); format: cell-based; conditions: 18-48 hours, concentration for 50% of the maximum fold induction
T1 construct: expressed in transfected cells; host or cells: CHO-K1
T1 sequence (P37231 1-477 isoform P37231-2): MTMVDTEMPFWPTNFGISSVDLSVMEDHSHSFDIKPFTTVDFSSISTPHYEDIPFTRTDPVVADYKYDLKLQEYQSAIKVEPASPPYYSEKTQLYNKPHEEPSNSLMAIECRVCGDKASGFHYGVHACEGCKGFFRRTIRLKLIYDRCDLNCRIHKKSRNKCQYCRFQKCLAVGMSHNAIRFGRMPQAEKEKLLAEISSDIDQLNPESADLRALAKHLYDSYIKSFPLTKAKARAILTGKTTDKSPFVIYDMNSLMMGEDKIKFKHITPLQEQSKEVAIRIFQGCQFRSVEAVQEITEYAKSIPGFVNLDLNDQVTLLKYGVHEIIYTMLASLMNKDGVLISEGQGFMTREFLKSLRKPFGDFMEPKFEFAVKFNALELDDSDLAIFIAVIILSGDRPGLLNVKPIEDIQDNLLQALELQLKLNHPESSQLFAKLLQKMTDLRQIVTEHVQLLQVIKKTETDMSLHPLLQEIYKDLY
T1 sequence (P19793 1-462 partner): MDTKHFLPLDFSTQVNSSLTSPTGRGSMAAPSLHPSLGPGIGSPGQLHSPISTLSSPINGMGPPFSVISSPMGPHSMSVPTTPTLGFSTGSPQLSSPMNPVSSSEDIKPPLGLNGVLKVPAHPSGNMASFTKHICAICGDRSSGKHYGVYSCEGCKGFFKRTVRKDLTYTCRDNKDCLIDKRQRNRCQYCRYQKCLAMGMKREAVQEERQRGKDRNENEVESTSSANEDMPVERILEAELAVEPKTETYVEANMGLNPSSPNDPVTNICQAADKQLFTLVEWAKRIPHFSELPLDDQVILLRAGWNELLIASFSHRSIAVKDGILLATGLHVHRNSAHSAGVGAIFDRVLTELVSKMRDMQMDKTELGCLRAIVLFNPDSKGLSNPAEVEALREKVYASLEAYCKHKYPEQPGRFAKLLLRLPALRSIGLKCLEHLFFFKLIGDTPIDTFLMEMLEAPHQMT
Summary of the method: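 Stable CHO-K1 line co-expressing hPPARγ/RXR with 4ERPP-TK luciferase reporter, 2×10^4 cells per well, treated 18-48 h at 37° C. in HAM F12 with 0.1% fatty acid-free BSA. Luciferase fold induction versus untreated taken as 1; EC50 is concentration giving 50% of maximal fold induction.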

KKAY mice = experiment: Hypoglycemic and hypolipidemic actions in mice (Test Example 1); format: in vivo; conditions: Mus musculus, po, 96 h, 0.005% in powdery diet, four days, non-treated group taken as 100%
Summary of the method: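 KKAY mice (9 to 12 weeks old, 5 per group) were fed diet containing 0.005% test compound ad libitum for four days. Plasma glucose and triglycerides from orbital venous blood were measured enzymatically, reported as % decrease relative to untreated group (100%).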

[1] = rate of decrease in blood glucose level, read-out: Hypoglycemic action (%)
[2] = rate of decrease in blood triglyceride level, read-out: Hypolipidemic action (%)

Row | melting point | EC50 (PPARγ-RXRα heterodimer) | Compound | inhibition in vivo at 0.005 % in diet (KKAY mice; [1]) | inhibition in vivo at 0.005 % in diet (KKAY mice; [2])
1 | 155 to 156 °C | 22 nM | CCc1cccc(CC(=O)O)c1OCCCc1cn(-c2ccc(C(F)(F)F)cn2)nc1C(C)C [Example 227, [3-ethyl-2-(3-{3-isopropyl-1-[5-(trifluoromethyl)-2-pyridinyl]-1H-pyrazol-4-yl}propoxy)phenyl]acetic acid] | 43% | 26%
2 | 126 to 127 °C | 19 nM | CCc1cccc(CC(=O)O)c1OCCCc1cn(-c2ccc(C(F)(F)F)nn2)nc1C(C)C [Example 245, [3-ethyl-2-(3-{3-isopropyl-1-[6-(trifluoromethyl)pyridazin-3-yl]-1H-pyrazol-4-yl}propoxy)phenyl]acetic acid] | 42% | 55%
3 | 92 to 93 °C | 82 nM | COc1cccc(CC(=O)O)c1OCCCc1cn(-c2ccc(C(F)(F)F)nn2)nc1C(C)C [Example 274, [2-(3-{3-isopropyl-1-[6-(trifluoromethyl)pyridazin-3-yl]-1H-pyrazol-4-yl}propoxy)-3-methoxyphenyl]acetic acid] | 50% | 60%
4 | 148 to 149 °C | 100 nM | COc1cccc(CC(=O)O)c1OCCCc1cn(-c2ccc(Cl)cn2)nc1C(C)C [Example 311, (2-{3-[1-(5-chloro-2-pyridinyl)-3-isopropyl-1H-pyrazol-4-yl]propoxy}-3-methoxyphenyl)acetic acid] | 52% | 29%
5 | 76 to 77 °C | 22 nM | CCC(CC)c1nn(-c2ccc(C(F)(F)F)nn2)cc1CCCOc1c(C)cccc1CC(=O)O [Example 340, [2-(3-{3-(1-ethylpropyl)-1-[6-(trifluoromethyl)pyridazin-3-yl]-1H-pyrazol-4-yl}propoxy)-3-methylphenyl]acetic acid] | 49% | 55%
6 | 94 to 95 °C | 20 nM | CCC(CC)c1nn(-c2ccc(Br)cn2)cc1CCCOc1c(CC(=O)O)cccc1OC [Example 351, (2-{3-[1-(5-bromo-2-pyridinyl)-3-(1-ethylpropyl)-1H-pyrazol-4-yl]propoxy}-3-methoxyphenyl)acetic acid] | 51% | 49%
